Publication PMC9358932 (Chemical Science, 2022)
Where two headings read alike, the source gives them in different places.

Key:
[1] = test system: Cp149 dimer; experiment: Solution-state NMR chemical shift perturbations; assay type: binding, Hepatitis B virus (HBV); settings: 4 molar equivalents of compound
[2] = target: T1, Cp149 reassembled capsids (Hepatitis B virus genotype D subtype ayw, UniProt P03146); experiment: biochemical; assay type: binding, Hepatitis B virus (HBV); settings: ITC, 50 mM HEPES pH 7.5, 298 K
T1 sequence (P03146 1-149): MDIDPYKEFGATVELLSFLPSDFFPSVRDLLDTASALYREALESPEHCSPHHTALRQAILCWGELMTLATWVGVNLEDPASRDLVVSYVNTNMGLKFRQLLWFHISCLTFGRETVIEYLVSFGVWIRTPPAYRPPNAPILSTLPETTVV

[3] = test system: many organisms; settings: cited from earlier work
[4] = target: T1, Cp149 reassembled capsids; settings: ITC, TX100 value taken from previous data; cited from earlier work

Molecule	CSPs / pocket binding in words [1]	ΔH [2] [kJ/mol]	Kd [2] [µM]	other results
4’-heptylacetophenone [Compound 2d]	rather small CSPs			
Reduced Triton X-100 [Compound 1b]	very small CSPs			
4-hexylaniline [Compound 2e]	smallest CSPs			
NP40 [Compound 6g]		-14.3 ± 0.38		
CC(C)c1ccc(O)cc1 [Compound 4a, 4-isopropylphenol]		-21 ± 13	18 ± 7	
CC(C)(C)CC(C)(C)c1ccc(O)cc1 [Compound 1c, 4-tert-octylphenol]	as high as those derived for TX100	-20 ± 0.586	7.5 ± 0.5	toxicity / environmental pollutant [3]: toxic to many organisms
Triton X-100 [Compound 1a]				Kd [4]: 8.3 ± 0.5 µM; ΔH [4]: -19.2 ± 0.21 kJ/mol
CCCCCCc1ccc(O)cc1 [Compound 2a, 4-hexylphenol]		-25.1 ± 2.5	13 ± 3	
CCCc1ccc(O)cc1 [Compound 4b, 4-propylphenol]		-29 ± 17	14 ± 7	
CCC(C)(C)c1ccc(O)cc1 [Compound 4c, 4-tert-amylphenol]		-53.1 ± 5.02	30 ± 4	
